Legend:
glp-4(bn2) worms = assay: Longevity (life span) assay; settings: 50 μM in NGM, E. coli OP50, Fig 3A
Experimental: To test the long-term toxicity of the hit compounds, life span assays were carried out by placing sterile, young adult glp-4(bn2) worms on NGM (standard nematode growth media, defined in Materials and Methods) seeded with Escherichia coli OP50. […] Sterile worms were used to eliminate the need to transfer worms between plates during life span assays, and we elected to use glp-4(bn2) to induce sterility instead of using wild-type worms sterilized with 5-fluoro-2′-deoxyuridine (FUDR) because the interaction of the compounds could generate artifacts during the long course of life span experiments.
Worms were scored daily by prodding. […] The viability was normalized to a DMSO solvent control. […] Error bars represent standard error of the mean.
Worms were picked onto agar plates seeded with 50 µl of concentrated E. coli OP50. Compounds were added to liquid agar before pouring plates. Worms were scored every day for death by prodding with a platinum wire. Worms that escaped the plate or died on the wall of the plate were censored. Each compound was tested in at least three biological replicates, each including 50 to 70 worms.

C. elegans transcriptome = assay: Transcriptome profiling (Affymetrix microarrays), differentially expressed genes; assay type: in vivo, Caenorhabditis elegans; settings: for Fold Change: downregulated genes
Experimental: To gain additional insight into the effect of LK molecules on C. elegans, young-adult, wild-type worms were treated with each drug at 100 µM for 8 h in the absence of pathogen. RNA was collected, and transcriptome profiling was performed.
Data were determined using Affymetrix microarrays, as described in Materials and Methods. Download Table S3, XLSX file, 0.07 MB.
Transcriptome profiling was performed on ∼6,000 wild-type, young adult worms incubated with either LK molecules or DMSO for 8 h. RNA isolation was performed using TRIzol extraction, followed by cleanup using RNeasy columns according to the manufacturer’s protocol. Each condition was analyzed in triplicate. Microarray data have been deposited in the GEO database, accession number GSE137516. […] Clustering and generation of the heat map was performed using Cluster 3.0 ([98]) and Treeview ([99]), respectively. Fold change of genes were normalized to average fold change of that gene over all clustered conditions. Genes and conditions were clustered using Euclidean distance and average linkages. […] Microarray data for non-LK molecules were collected from GEO omnibus. WormEXP was used as a secondary method for confirming statistical significance of potential pathways stimulated by each of the LK molecules ([100]). Gene ontologies were generated using DAVID ([101], [102]).

[1] = Downregulated genes, Affy_ID 171867_x_at
[2] = Downregulated genes, Affy_ID 176276_s_at

Q: What does the source list for `CCN(CC)/N=N/c1ccc(C(=O)O)cc1` [LK35]?
A: TD50 (time to 50% death), life span (glp-4(bn2) worms): 7.7 days; Fold Change (C. elegans transcriptome; Affy_ID 171811_s_at, listed under genes K01D12.7 (LK34, LK38), C57047 (LK35), K01D12.15 (LK38)): 0.292; Fold Change (C. elegans transcriptome; Affy_ID 171867_x_at, listed under genes C09B9.6, F36H12.7, K07F5.1, R05F9.13, R13H9.2, R13H9.4, T13F2.10, T13F2.11, Y59E9AR.1, Y59E9AR.7, ZK354.1): 0.2025; Fold Change (C. elegans transcriptome; Affy_ID 171880_x_at, listed under genes C24D10.7 and C24D10.8): 0.4703; Fold Change, gene Y59E9AR.1 (C. elegans transcriptome; [1]): 0.2025; Fold Change, gene Y59E9AR.7 (C. elegans transcriptome; [1]): 0.2025; Fold Change, gene ZK354.1 (C. elegans transcriptome; [1]): 0.2025; Fold Change, gene ZK354.10 (C. elegans transcriptome; [1]): 0.2025; Fold Change, gene ZK354.11 (C. elegans transcriptome; [1]): 0.2025; Fold Change, gene ZK354.4 (C. elegans transcriptome; [1]): 0.2025; Fold Change, gene ZK354.5 (C. elegans transcriptome; [1]): 0.2025; Fold Change, gene ZK131.11 (C. elegans transcriptome; Downregulated genes, Affy_ID 171916_s_at): 0.3792; Fold Change, gene Y59H11AM.1 (C. elegans transcriptome; Downregulated genes, Affy_ID 172113_x_at): 0.2252; Fold Change, gene Y71H2AL.C (C. elegans transcriptome; Downregulated genes, Affy_ID 172177_x_at): 0.4472; Fold Change, gene ZK525.1 (C. elegans transcriptome; Downregulated genes, Affy_ID 172214_x_at): 0.281; Fold Change, gene T23B7.1 (C. elegans transcriptome; Downregulated genes, Affy_ID 172486_x_at): 0.3276; Fold Change, gene Y105C5A.13 (C. elegans transcriptome; Downregulated genes, Affy_ID 172627_x_at): 0.07461; Fold Change, gene T28H11.6 (C. elegans transcriptome; Downregulated genes, Affy_ID 172704_x_at): 0.2084; Fold Change, gene ZK1248.4 (C. elegans transcriptome; Downregulated genes, Affy_ID 172734_x_at): 0.2437; Fold Change, gene ZK546.3 (C. elegans transcriptome; Downregulated genes, Affy_ID 172798_x_at): 0.1152; Fold Change, gene ZK131.7 (C. elegans transcriptome; Downregulated genes, Affy_ID 172871_x_at): 0.3252; Fold Change, gene ZK1248.6 (C. elegans transcriptome; Downregulated genes, Affy_ID 172887_x_at): 0.1434; Fold Change, gene ZK546.6 (C. elegans transcriptome; Downregulated genes, Affy_ID 172900_x_at): 0.1383; Fold Change, gene ZK1251.6 (C. elegans transcriptome; Downregulated genes, Affy_ID 172938_x_at): 0.1992; Fold Change, gene Y43F8B.2 (C. elegans transcriptome; Downregulated genes, Affy_ID 173326_s_at): 0.3741; Fold Change, gene T27E4.7 (C. elegans transcriptome; Downregulated genes, Affy_ID 173756_at): 0.207; Fold Change, gene Y54G2A.7 (C. elegans transcriptome; Downregulated genes, Affy_ID 174102_at): 0.2822; Fold Change, gene ZK809.8 (C. elegans transcriptome; Downregulated genes, Affy_ID 175557_at): 0.3895; Fold Change, gene ZK112.1 (C. elegans transcriptome; Downregulated genes, Affy_ID 175995_at): 0.2683; Fold Change, gene Y119D3B.13 (C. elegans transcriptome; Downregulated genes, Affy_ID 176131_at): 0.2184; Fold Change, gene Y69A2AR.12 (C. elegans transcriptome; [2]): 0.2706; Fold Change, gene Y69A2AR.25 (C. elegans transcriptome; [2]): 0.2706; Fold Change, gene Y71H2AM.13 (C. elegans transcriptome; Downregulated genes, Affy_ID 176285_s_at): 0.4282; Fold Change, gene Y71G12B.4 (C. elegans transcriptome; Downregulated genes, Affy_ID 176544_at): 0.3363; Fold Change, gene Y54G2A.14 (C. elegans transcriptome; Downregulated genes, Affy_ID 177004_s_at): 0.3979; Fold Change, gene Y73B6BL.24 (C. elegans transcriptome; Downregulated genes, Affy_ID 177183_s_at): 0.3786; Fold Change, gene Y71H2AL.1 (C. elegans transcriptome; Downregulated genes, Affy_ID 177190_at): 0.2701; Fold Change, gene ZK669.2 (C. elegans transcriptome; Downregulated genes, Affy_ID 179491_at): 0.1961; Fold Change, gene ZK550.2 (C. elegans transcriptome; Downregulated genes, Affy_ID 179513_at): 0.2553; Fold Change, gene T23F4.3 (C. elegans transcriptome; Downregulated genes, Affy_ID 179815_at): 0.0609; Fold Change, gene Y51H4A.7 (C. elegans transcriptome; Downregulated genes, Affy_ID 180145_s_at): 0.2617; Fold Change, gene T23F4.1 (C. elegans transcriptome; Downregulated genes, Affy_ID 180223_s_at): 0.03953; Fold Change, gene W04B5.2 (C. elegans transcriptome; Downregulated genes, Affy_ID 180561_at): 0.4474; Fold Change, gene ZK484.5 (C. elegans transcriptome; Downregulated genes, Affy_ID 182193_at): 0.3211; Fold Change, gene Y44A6C.1 (C. elegans transcriptome; Downregulated genes, Affy_ID 182843_at): 0.3152; Fold Change, gene Y45F10A.5 (C. elegans transcriptome; Downregulated genes, Affy_ID 184558_at): 0.1919; Fold Change, gene T23B12.8 (C. elegans transcriptome; Downregulated genes, Affy_ID 184855_at): 0.1557; Fold Change, gene Y105C5B.5 (C. elegans transcriptome; Downregulated genes, Affy_ID 185106_at): 0.254; Fold Change, gene W01A11.6 (C. elegans transcriptome; Downregulated genes, Affy_ID 186120_at): 0.4275; Fold Change, gene T27A10.7 (C. elegans transcriptome; Downregulated genes, Affy_ID 186153_s_at): 0.3382; Fold Change, gene Y18D10A.23 (C. elegans transcriptome; Downregulated genes, Affy_ID 186886_s_at): 0.3476; Fold Change, gene Y105C5A.24 (C. elegans transcriptome; Downregulated genes, Affy_ID 187121_at): 0.3662; Fold Change, gene ZC416.6 (C. elegans transcriptome; Downregulated genes, Affy_ID 188470_s_at): 0.2458; Fold Change, gene T25C12.3 (C. elegans transcriptome; Downregulated genes, Affy_ID 188823_s_at): 0.2936; Fold Change, gene ZK593.1 (C. elegans transcriptome; Downregulated genes, Affy_ID 189095_at): 0.3436; Fold Change, gene ZK484.2 (C. elegans transcriptome; Downregulated genes, Affy_ID 189882_at): 0.286; Fold Change, gene ZK131.4 (C. elegans transcriptome; Downregulated genes, Affy_ID 190307_s_at): 0.2791; Fold Change, gene Y40D12A.2 (C. elegans transcriptome; Downregulated genes, Affy_ID 191017_at): 0.3228; Fold Change, gene W07B8.5 (C. elegans transcriptome; Downregulated genes, Affy_ID 191887_s_at): 0.2934; Fold Change, gene Y51A2D.13 (C. elegans transcriptome; Downregulated genes, Affy_ID 192992_at): 0.2251; Fold Change, gene Y69E1A.5 (C. elegans transcriptome; Downregulated genes, Affy_ID 193144_at): 0.316; Fold Change, gene Y111B2A.13 (C. elegans transcriptome; Downregulated genes, Affy_ID 193715_at): 0.4867; Fold Change, gene Y48A6B.7 (C. elegans transcriptome; Downregulated genes, Affy_ID 193926_at): 0.205; Fold Change, gene ZK666.7 (C. elegans transcriptome; Downregulated genes, Affy_ID 194066_s_at): 0.1175; Fold Change (C. elegans transcriptome; Gene AC3.7, Affy_ID 190879_at): 0.1754; Fold Change (C. elegans transcriptome; Gene B0035.13, Affy_ID 188123_at): 0.2664; Fold Change (C. elegans transcriptome; Gene C02F5.7, Affy_ID 191772_at): 0.3854; Fold Change (C. elegans transcriptome; Gene C04G2.4, Affy_ID 172853_x_at): 0.1724; Fold Change (C. elegans transcriptome; Gene C05C10.4, Affy_ID 189921_at): 0.2517; Fold Change (C. elegans transcriptome; Gene C05C12.3, Affy_ID 183355_s_at): 0.2041; Fold Change (C. elegans transcriptome; Gene C06A12.3, Affy_ID 183322_at): 0.4777; Fold Change (C. elegans transcriptome; Gene C06G3.5, Affy_ID 189941_at): 0.4389; Fold Change (C. elegans transcriptome; Gene C08E3.1, Affy_ID 172309_x_at): 0.09218; Fold Change (C. elegans transcriptome; Gene C08E3.13, Affy_ID 172565_x_at): 0.08084; Fold Change (C. elegans transcriptome; Gene C08F11.13, Affy_ID 175229_at): 0.2613; Fold Change (C. elegans transcriptome; Gene C14C6.2, Affy_ID 183566_at): 0.2902; Fold Change (C. elegans transcriptome; Gene C17B7.2, Affy_ID 181325_s_at): 0.2818; Fold Change (C. elegans transcriptome; Gene C18G1.2, Affy_ID 191147_at): 0.4346; Fold Change (C. elegans transcriptome; Gene C18H9.6, Affy_ID 187412_at): 0.3068; Fold Change (C. elegans transcriptome; Gene C24A3.6, Affy_ID 175541_at): 0.3015
